The results in this text go back to US4962109A, “Insecticidally and acaricidally active pyrimidine esters and intermediates therefor” (Imperial Chemical Industries PLC, priority 1985, dated 1990).

Type in all cases: in vivo
Assay [1] has as its system Tetranychus urticae (spider mites - adult). The assay is described as follows: Contact test on spider mites - adult (TUa), French bean leaf, mortality. The settings on record: 72 h, 500 ppm, contact, 3 days, read-out: TUa grading of mortality. The procedure:
(§1) The activity of the Product was determined using a variety of insect pests. The Product was used in the form of liquid preparations containing 500, 250 or 100 parts per million (ppm) by weight of the Product. The preparations were made by dissolving the Product in acetone and diluting the solutions with water containing 0.01% by weight of a wetting agent sold under the trade name "LISSAPOL" NX until the liquid preparations contained the required concentration of the Product. "Lissapol" is a Registered Trade Mark.
(§2) The test procedure adopted with regard to each pest was basically the same and comprised supporting a number of the pests on a medium which was usually a host plant or a foodstuff on which the pests feed, and treating either or both the pests and the medium with the preparations. The mortality of the pests was then assessed at periods usually varying from one to three days after the treatment.
(§3) The results of the tests are given in Table III for each of the Products, at the rate in parts per million given in the second column as a grading of mortality designated as A, B or C wherein A indicates 80-100% mortality or knockdown, B indicates 50-79% mortality or knockdown and C indicates less than 50% mortality or knockdown.

In assay [2] the test system is Nephotettix cincticeps (green leaf hopper - nymphs). The assay is described as follows: Contact test on green leaf hopper nymphs (NC), Rice plant, mortality. As to conditions: 48 h, 500 ppm, contact, 2 days, read-out: NC grading of mortality. The procedure:
as §1, §2, §3
NC Nephotettix cincticeps

In assay [3] the test system is Diabrotica balteata (rootworm larvae). The assay is described as follows: Residual test on rootworm larvae (DB), Filter paper/maize seed, mortality. As to conditions: 48 h, 500 ppm, residual, 2 days, read-out: DB grading of mortality. On the procedure:
as §1, §2, §3

The test system of assay [4] is Blattella germanica (cockroach nymphs). The assay is described as follows: Contact test on cockroach nymphs (BG/C), Plastic pot, mortality. As to conditions: 48 h, 500 ppm, contact, 2 days, read-out: BG/C grading of mortality. On the procedure:
as §1, §2, §3
BG/C Blattella germanica

Assay [5] relates to Myzus persicae (aphids). The assay is described as follows: Contact test on aphids (MP), Chinese Cabbage leaf, mortality. The settings on record: 72 h, 500 ppm, contact, 3 days, read-out: MP grading of mortality. The procedure:
as §1, §2, §3

In assay [6] the test system is Musca domestica (houseflies - adults). The assay is described as follows: Contact test on houseflies - adults (MD), Cotton wool/sugar, mortality. The settings on record: 72 h, 500 ppm, contact, 3 days, read-out: MD grading of mortality. The procedure: as §1, §2, §3
Assay [7] concerns Heliothis virescens (tobacco budworm - larvae). The assay is described as follows: Residual test on tobacco budworm larvae (HV), Cotton leaf, mortality. As to conditions: 48 h, read-out: HV grading of mortality. The procedure:
as §1, §2, §3
(tobacco budworm - larvae)

The subject of assay [8] is Tetranychus urticae (spider mites - ova). The assay is described as follows: Contact test on spider mites - ova (TUe), French bean leaf, mortality. As to conditions: 144 h, 500 ppm, contact, 6 days, read-out: TUe grading of mortality. On the procedure:
as §1, §2, §3

Assay [9] concerns Musca domestica (houseflies - adults). The assay is described as follows: Knockdown test on houseflies - adults (MD/KD), Cotton wool/sugar. The settings on record: 500 ppm, 4 hours, read-out: MD/KD grading of knockdown. On the procedure: as §1, §2
In the case of the species Musca domestica (housefly), additional tests to determine the knockdown effect of the compounds were performed. PG,163
as §3

Assay [10] has as its system Spodoptera exigua (lesser army worm - larvae). The assay is described as follows: Residual test on lesser army worm larvae (SP), Cotton leaf, mortality. The settings on record: 48 h, 500 ppm, residual, 2 days, read-out: SP grading of mortality. The procedure:
as §1, §2, §3
(lesser army worm - larvae)

A value given as a limit tells only on which side of the number the result lay.

For `CC(C)(C)c1ncc(C(C(=O)OCc2c(F)c(F)c(CC3CC3(Cl)Cl)c(F)c2F)C(C)(C)C)cn1` (racemic) [Compound 216, 4-[(2,2-dichlorocyclopropyl)methyl]-2,3,5,6-tetrafluorobenzyl (RS)-2-[2-(1,1-dimethylethyl)pyrimidin-5-yl]-3,3-dimethylbutanoate], the mortality at 500 ppm was 80 to 100% in assay [1]; 50 to 79% in assay [2]; less than 50% in assay [3]; less than 50% in assay [4]; less than 50% in assay [5]; less than 50% in [6]. In addition, the mortality at 500 ppm in assay [7] is less than 50%; in assay [8], less than 50%; in assay [10], 50 to 79%. Besides, the pest or weed control at 500 ppm in assay [9] was less than 50%.
As to `CC(C)(C)c1ncc(C(C(=O)OCc2cccc(Oc3ccccc3)n2)C(C)(C)C)cn1` (racemic) [Compound 9, (6-phenoxypyrid-2-yl)methyl (RS)-2-[2-(1,1-dimethylethyl)pyrimidin-5-yl]-3,3-dimethylbutanoate], the mortality at 500 ppm fell in the range of 80 to 100% in [1]; 80 to 100% in assay [2]; 50 to 79% in assay [3]; 50 to 79% in assay [4]; 80 to 100% in assay [5]; 80 to 100% in assay [6]. The mortality at 500 ppm in assay [7], in [8] and in assay [10] was 80 to 100% each time. Moreover, the pest or weed control at 500 ppm in assay [9] is 80 to 100%.
Consider `C[C@@H](OC(=O)[C@@H](c1cnc(C2(C)CC2)nc1)C(C)(C)C)c1cccc(Oc2ccccc2)n1` (racemic) [Compound 203, (RS)-1-(6-phenoxypyrid-2-yl)ethyl (RS)-2-[2-(1-methylcyclopropyl)pyrimidin-5-yl]-3,3-dimethylbutanoate], for which the mortality at 500 ppm was 80 to 100% in [1]; 80 to 100% in [2]; less than 50% in assay [3]; 50 to 79% in assay [4]; 80 to 100% in [5]; 80 to 100% in assay [6]. Besides, the mortality at 500 ppm in assay [7] was 80 to 100%; in assay [8], 50 to 79%; in [10], 80 to 100%. In addition, the pest or weed control at 500 ppm in [9] lay in the range of 80 to 100%.
Regarding `CC(C)(C)c1ncc(C(C(=O)SCc2c(F)c(F)c(CO)c(F)c2F)C(C)(C)C)cn1` (racemic) [Compound 196], the mortality at 500 ppm in assay [1], in [2], in [3], in assay [4], in assay [5] and in [6] was less than 50% throughout. In addition, the mortality at 500 ppm is less than 50% in assay [7], less than 50% in assay [8] and 80 to 100% in assay [10]. Moreover, the pest or weed control at 500 ppm in [9] was less than 50%.
With `CN(C)c1ncc(C(C(=O)OCc2ccc(F)c(Oc3ccccc3)c2)C(C)(C)C)cn1` (racemic) [Compound 200, 4-fluoro-3-phenoxybenzyl (RS)-2-[2-(N,N-dimethylamino)pyrimidin-5-yl]-3,3-dimethylbutanoate], the mortality at 500 ppm in assay [1] was 80 to 100%; in assay [2] it was 80 to 100%; in assay [3], less than 50%; in assay [4], less than 50%; in [5] it was 80 to 100%; in assay [6] it was less than 50%. Moreover, the values for the mortality at 500 ppm in assay [7], in assay [8] and in [10] were 80 to 100%, less than 50% and 80 to 100%, respectively. Also, the pest or weed control at 500 ppm in assay [9] is 80 to 100%.
With `CC(C)(C)c1ncc(C(C(=O)OCc2c(F)c(F)c(CC3CC3)c(F)c2F)C(C)(C)C)cn1` (racemic) [Compound 179, 4-(cyclopropylmethyl)-2,3,5,6-tetrafluorobenzyl (RS)-2-[2-(1,1-dimethylethyl)pyrimidin-5-yl]-3,3-dimethylbutanoate], the mortality at 500 ppm in [1] was 80 to 100%; in [2], 80 to 100%; in [3] it was less than 50%; in [4], less than 50%; in assay [5], 80 to 100%; in [6], less than 50%. In addition, the mortality at 500 ppm in [7], in assay [8] and in assay [10] was less than 50% in each case. The pest or weed control at 500 ppm in assay [9] is less than 50%.
`Cc1c(COC(=O)C(c2cnc(C(C)(C)C)nc2)C(C)(C)C)cccc1-c1ccccc1` (racemic) [Compound 3, 2-methyl-3-phenylbenzyl (RS)-2-[2-(1,1-dimethylethyl)pyrimidin-5-yl]-3,3-dimethylbutanoate]: the mortality at 500 ppm in [1] was 80 to 100%; in assay [2], 80 to 100%; in [3], less than 50%; in assay [4], less than 50%; in [5], less than 50%; in assay [6] it was less than 50%. Besides, the mortality at 500 ppm in [7] is 50 to 79%; in assay [8] it was 80 to 100%; in assay [10], 80 to 100%. Also, in assay [9], the pest or weed control at 500 ppm was less than 50%.
For the molecule `CC(C)(C)c1ncc(C(C(=O)OC(C#N)c2cccc(Oc3ccccc3)c2)C(C)(C)C)cn1` (racemic) [Compound 2, (RS)-1-cyano-1-(3-phenoxphenyl)methyl (RS)-2-[2-(1,1-dimethylethyl)pyrimidin-5-yl]-3,3-dimethylbutanoate], the mortality at 500 ppm was 80 to 100% in [1]; 80 to 100% in [2]; 80 to 100% in assay [3]; less than 50% in assay [4]; 80 to 100% in assay [5]; 80 to 100% in [6]. In addition, the mortality at 500 ppm is 80 to 100% in assay [7], less than 50% in [8] and 80 to 100% in assay [10]. In addition, the pest or weed control at 500 ppm in assay [9] is less than 50%.
`CC(C)(C)c1ncc(C(C(=O)OCc2c(F)c(F)c(CO)c(F)c2F)C(C)(C)C)cn1` (racemic) [Compound 164, 4-(hydroxymethyl)-2,3,5,6-tetrafluorobenzyl (RS)-2-[2-(1,1-dimethylethyl)pyrimidin-5-yl]-3,3-dimethylbutanoate]: the mortality at 500 ppm in assay [1] is 80 to 100%; in assay [2], less than 50%; in [3], less than 50%; in [4], less than 50%; in assay [5] it was 50 to 79%; in [6], less than 50%. Moreover, the mortality at 500 ppm in assay [7] was 50 to 79%; in assay [8] it was less than 50%; in [10], 80 to 100%. In assay [9], the pest or weed control at 500 ppm lay within 80 to 100%.
In the case of `COCc1c(F)c(F)c(COC(=O)C(c2cnc(C(F)(F)F)nc2)C(C)(C)C)c(F)c1F` (racemic) [Compound 41, 2,3,5,6-tetrafluoro-4-(methoxymethyl)benzyl (RS)-2-[2-(trifluoromethyl)pyrimidin-5-yl]-3,3-dimethylbutanoate], the mortality at 500 ppm in assay [1] was 80 to 100%; in [2], 80 to 100%; in [3], less than 50%; in assay [4], 80 to 100%; in assay [5], 80 to 100%; in [6] it was 80 to 100%. The mortality at 500 ppm in assay [7] was 80 to 100%; in assay [8], less than 50%; in [10] it was 80 to 100%. Further, the pest or weed control at 500 ppm in assay [9] was 80 to 100%.
For `CC(C)(C)c1ncc(C(C(=O)OCc2c(F)cccc2Cl)C(C)(C)C)cn1` (racemic) [Compound 26, 2-chloro-6-fluorobenzyl (RS)-2-[2-(1,1-dimethylethyl)pyrimidin-5-yl]-3,3-dimethylbutanoate], the mortality at 500 ppm in [1] was 80 to 100%; in assay [2] it was 80 to 100%; in [3] it was 80 to 100%; in assay [4], less than 50%; in assay [5] it was 50 to 79%; in [6] it was 80 to 100%. Also, the mortality at 500 ppm in [7] was less than 50%; in assay [8], 80 to 100%; in [10], 80 to 100%. The pest or weed control at 500 ppm in [9] is 80 to 100%.
